Peptide text beside a SMILES is read from it. * marks the point of attachment. Decanoyl = CCCCCCCCCC(=O)*; CH2Cl = ClC*
Tests used:
Assay type in all cases: cell-based
[1] = tested on: cleavage of wildtype HIV-1 envelope boundary by Furin or similar enzymes; assay: multiplexed tdTomato-barcoded SupT1 flow cytometry assay, wildtype HIV-1 envelope boundary substrate; details: DCK treatment; wildtype HIV-1 envelope boundary population
Text: (§1) As example, FIG. 15 schematically illustrates a fluorescent flow cytometry analysis of three SupT1 T cell lines, each carrying a different substrate within the context of the assay elements. The distinct cell lines were previously genetically barcoded with different levels of tdTomato fluorescent protein. In that manner, the assay cells, when analyzed for tdTomato in the PE channel (FIG. 15A, panel A) show three populations (negative, dim, and bright tdTomato). […] The HA positive/FLAG positive population reveal Population 2 (dim for tdTomato expressing the mutant HIV envelope boundary; env-mut (R511S)).
(§2) FIG. 16 schematically illustrates a fluorescent flow cytometry analysis in the PE channel for td Tomato expression and FITC channel for FLAG expression. As a reminder, in the assay the second tag (FLAG here) is lost if cleavage occurs while the scaffold protein travels to the cell surface. […] When stained for FLAG, only population 2 (mutant HIV-1 boundary) retains the tag, while wild type HIV-1 boundary and DenV pr-M, as expected, lost it.
(§3) In alternative embodiments, exemplary assays of the invention are used for drug discovery. As a proof of principle, the same experiment with the three bar-coded populations was repeated in the presence of DCK, an inhibitor of Furin and similar protein convertases that are active in the Golgi/TransGolgi network. […]

[2] = target: T1, Furin (Homo sapiens, UniProt P09958); assay: flow cytometry of FLAG surface expression in SupT1 clones stably expressing the wt gp120/gp41 boundary scaffold; details: SupT1 clones expressing wt gp120/41 boundary, FITC anti-FLAG, 0.9% without inhibitor
T1 construct: endogenous in cells; host or cells: SupT1 T-cell clones stably transduced with pBMN-gp160 min-wt
T1 sequence (P09958 108-794): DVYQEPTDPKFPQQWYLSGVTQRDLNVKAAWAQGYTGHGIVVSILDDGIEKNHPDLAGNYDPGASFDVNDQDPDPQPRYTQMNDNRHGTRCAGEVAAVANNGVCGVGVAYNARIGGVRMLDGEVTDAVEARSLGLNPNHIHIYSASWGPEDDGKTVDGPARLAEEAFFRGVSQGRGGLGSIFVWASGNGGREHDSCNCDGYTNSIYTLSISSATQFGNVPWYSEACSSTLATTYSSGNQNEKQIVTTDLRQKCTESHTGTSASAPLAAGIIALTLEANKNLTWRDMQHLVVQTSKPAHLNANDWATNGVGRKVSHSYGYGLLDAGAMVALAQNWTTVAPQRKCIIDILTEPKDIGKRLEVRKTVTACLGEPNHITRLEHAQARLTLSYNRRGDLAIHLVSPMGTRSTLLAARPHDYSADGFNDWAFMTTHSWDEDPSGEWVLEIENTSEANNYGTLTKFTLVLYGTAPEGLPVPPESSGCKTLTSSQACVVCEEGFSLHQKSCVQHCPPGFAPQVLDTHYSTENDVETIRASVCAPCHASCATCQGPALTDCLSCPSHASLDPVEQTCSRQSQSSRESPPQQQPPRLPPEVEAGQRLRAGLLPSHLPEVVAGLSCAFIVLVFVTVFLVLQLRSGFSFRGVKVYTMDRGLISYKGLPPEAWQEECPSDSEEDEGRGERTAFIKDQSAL
Text: In alternative embodiments, cell-based assays of the invention comprise use of a double-tagged engineered scaffold (of the invention) that allows discrimination between cleaved and non-cleaved events based on the cell surface expression of one or two tags, respectively. In alternative embodiments the scaffold protein travels to the cell surface and retains the FLAG tag only when processing of the gp120/gp41 boundary within the gp160 Env precursor is inhibited, e.g., by a putative drug. […]
Clonal populations should drastically increase robustness as 100% of the cells are expected to express the assay scaffold. […] Selected clones sorted into a 96-well plate, were amplified for a period of one month and analyzed by flow cytometry and fluorescence microscopy. […]
For that purpose, clones expressing the wt gp120/41 boundary were analyzed by flow cytometry following incubation with increasing concentration of the Furin inhibitor DCK. […] The same clones, treated with 50 mM DCK, were further analyzed by fluorescence microscopy prior and following incubation with 50 mM DCK. […]
Flow cytometry and sorting: Flow cytometry is performed on a BD FACSAria™ and/or FACSCanto (SDSU FACS core facility) with 488 nm and 633 nm lasers. Data is collected using FACSDiva 6.1.1™ software (BD Biosciences. San Jose, Calif.) and analyzed by FLOWJO™ (Tree Star, Inc., Ashland, Oreg.).

[3] = tested on: cleavage of DenV pr-M boundary; assay: multiplexed tdTomato-barcoded SupT1 flow cytometry assay, DenV pr-M boundary substrate; details: DCK treatment; DenV pr-M population
Text: as §1, §2, §3

[4] = target: T1, Furin; assay: fluorescence microscopy (HA-FITC, FLAG-CY3) of SupT1 clones stably expressing the wt gp120/gp41 boundary scaffold; details: 50 mM DCK
Method: For that purpose, clones expressing the wt gp120/41 boundary were analyzed by flow cytometry following incubation with increasing concentration of the Furin inhibitor DCK. FLAG surface expression is progressively recovered at 10 mM and 50 mM DCK, increasing form 0.9% to 39% and then 90% (FIG. 7). The same clones, treated with 50 mM DCK, were further analyzed by fluorescence microscopy prior and following incubation with 50 mM DCK. The mutant version was used as control.
FIG. 8 illustrates: Fluorescence microscopy images of SupT1 clones stably expressing the assay (as with FIGS. 5, 6 and 7, above). Clones expressing wild type (wt) or mutant version of the boundary were analyzed with HA-FITC and FLAG-CY3. Visible light, individual channels and merge are shown. I: Inhibitor, BF: Bright Field.

## CCCCCCCCCC(=O)N[C@@H](CCCN=C(N)N)C(=O)N[C@H](C(=O)N[C@@H](CCCCN)C(=O)N[C@@H](CCCN=C(N)N)C(=O)CCl)C(C)C [DCK] (Decanoyl-RVKR-CH2Cl)
[1]
  second tag (FLAG) cell surface expression: reconstitutes the second tag (FLAG) cell surface expression
[2]; 10 mM DCK
  FLAG surface expression: 39%
[2]; 50 mM DCK
  FLAG surface expression: 90%
[3]
  inhibition of cleavage (FLAG reconstitution): not inhibited by DCK
[4]
  red fluorescence (FLAG-CY3) of wt clones: red fluorescence is restored

— patent US20190048391A1, “COMPOSITIONS AND METHODS FOR IDENTIFYING ENZYME MODULATORS OR INHIBITORS” (priority 2013, published 2019)
